Laboratory results taken from patent US20150224211A1, “LEUKOCYTES AS DELIVERY CELLS FOR IMAGING AND DISEASE THERAPY” (priority 2012, published 2015).
“Also recorded” adds a separate entry of the source.

Experiments:
[1] = test system: 4T1 mouse mammary carcinoma cells; assay: In situ photodynamic therapy (ALA plus luminol) of mouse mammary tumors; assay type: in vivo; details: ALA 100 mg/kg IP prior to luminol 250 mg/kg IP; treatment repeated; four days after PDT
Description: 1×10^5 4T1 mouse mammary carcinoma cells (ATCC) were transplanted into a mammary fat pad of a mouse. Four, six, eight and ten days after transplant, luminol (Sigma-Aldrich) was administered intrapertioneally (IP)(250 mg/kg) and the mouse was imaged on an IVIS Lumina imaging apparatus. For in situ photodynamic therapy, the sensitizer alpha aminolevulinic acid (ALA), which is a precursor to protoporphyrin IX (a clinically used photosensitizer), was administered IP (100 mg/kg,) prior to luminol administration. […] Adjunct treatments designed to enhance the PDT effect included the administration of the TGF-β inhibitor LY34947 (1 mg/kg, IP), streptokinase (800 units/mouse, IV), or a combination of LY34947 and streptokinase.

[2] = test system: Fusobacterium necrophorum subsp. necrophorum strain 8L1; assay: Efficacy study in mouse model of liver abscesses; assay type: in vivo, BALB/c mice; details: 60 μg CHX in 1.3×10^6 neutrophils
Description: In an efficacy study that followed, Fusobacterium necrophorum subsp. necrophorum strain 8L1 was grown overnight from a single colony in PRAS-BHI. 0.3 ml of the starter culture was added to 10 ml of fresh PRAS-BHI broth and grown to an O.D.600 of 0.7. 1 ml of this culture was diluted 1:40 to achieve a final concentration of approximately 4·10^6 CFU/ml. 400 μl of the diluted bacteria was injected intraperitonially into 10 week old BALB/c mice.
Ten-week old BALB/c mice were randomly assigned into 6 groups with 9 mice per group. On day zero, all mice were infected intraperitonially with an infectious dose (approximately 1×10^7 CFU) of F. necrophorum. On day 3, mice were injected (via tail vein) with 100 μl PBS (control), unmodified neutrophils, neutrophils carrying microparticles (an average of 20 cells of M. luteus loaded with chlorhexidine), or neutrophils containing unmodified, heat deactivated M. luteus. The animals were monitored for clinical signs for 5 days after treatment and were euthanized if any clinical signs developed. The mice were euthanized 5 days post treatment and all mice were examined post mortem for abscesses in the livers. Livers of the mice were weighed and homogenized in a tissue homogenizer for 1 min in modified lactate (ML) broth. […]

SMILES	tumor response determined by imaging with luciferin [1]	effect against the hepatic disease caused by F. necrophorum [2]
NCC(=O)CCC(=O)O [ALA, 5-aminolevulinic acid]	can attenuate tumors; also recorded: dramatic regression of the tumors	
[H]/N=C(\N/C(=N/[H])NCCCCCCNC(=N)NC(=N)Nc1ccc(Cl)cc1)Nc1ccc(Cl)cc1 [CHX, chlorhexidine gluconate]		effective
